Measurements published in paper PMC6315057, “Industrial scale high-throughput screening delivers multiple fast acting macrofilaricides” (Nature Communications, 2019).

What was measured:
[1] = test system: Wolbachia in C6/36 (wAlbB) cells; experiment: Secondary concentration response HTS (IC50) anti-Wolbachia screen in C6/36 (wAlbB) insect cells; format: cell-based, Wolbachia pipientis wAlbB (in Aedes albopictus C6/36 cells); details: Wolbachia, 168 h, 7-day incubation, 10-point concentration range
Method: Initially C6/36 (wAlbB) cells (insect cells stably infected with the Wolbachia target) from a single cryopreserved batch were recovered over 7 days prior to plating into 384-well assay ready plates (containing the test compounds), using a semi-automated process allowing for daily batches of ~150 plates, set up 4 days per week for 8 weeks. After a 7-day incubation period with the test compounds the plates were moved into the second fully automated stage (using the Agilent Technologies BioCel system) involving formaldehyde fixation, DNA staining of the insect cell nuclei (Hoechst) for toxicity analysis and antibody staining specific to the intracellular Wolbachia (wBmPAL primary antibody and far-red secondary antibody). In the final stage the fixed and stained plates from stage 2 were processed through automated data acquisition (High Res Biosolutions system, incorporating EnVision™ and acumen® plate readers). This industry standardised assay was then used to screen AstraZeneca’s full library of 1.3 million compounds within 10 weeks. In total this HTS included 30 × 3 week assays covering 3835 × 384-well plates. This primary HTS generated 20,255 hits defined as >80% reduction in Wolbachia with <60% toxicity to the host insect cell (eliminating false positives). This represents an overall hit rate of 1.56%. These compounds are depicted in chemical space in Fig. 2 (black points)[21].
The mosquito (Aedes albopictus) derived cell line C6/36 (ATCC® CRL 1660), stably infected with Wolbachia pipientis wAlbB (C6/36(wAlbB)), was maintained in Leibovitz L15 medium containing 2 mM L-glutamine, 1% nonessential amino acids, 2% tryptose phosphate broth and 20% heat-inactivated foetal bovine serum (FBS) at 26 °C[18]. This screen exclusively used cells from the large-scale cryopreserved batch produced as part of this campaign by culturing the cells at scale before cryopreservation (90% FBS and 10% DMSO). This produced a cell bank of 190 × 1 ml cryovials containing 3 × 10^7 cells per vial.
On day 0, a single cryovial was recovered and the cells washed before being transferred to a T225 cm^2 flask. After a 7-day recovery Wolbachia infection level (quality control (QC)) was checked by SYTO®11 DNA staining of both the host cell nuclei and intracellular Wolbachia. The end-point read out from the Operetta® high content imaging system (Perkin Elmer) was the percentage of cells infected with Wolbachia. This was obtained from cytoplasm texture analysis by the associated Harmony® software. Cells with a >50% of the population infected with Wolbachia were classed as having a good Wolbachia level and therefore used for screening through addition of 2000 cells per well into assay ready 384-well plates containing the test compounds. […] Each plate included on-board controls; vehicle/DMSO (total/maximum Wolbachia signal) or doxycycline 5 µM (null/minimum Wolbachia signal), resulting in single shot screening of 352 compounds per plate for the primary screen. […] QC plates were also created including full columns of the following controls; DMSO (total/max), 5 μM doxycycline (null/min), as well as 50 nM doxycycline (reference/medium Wolbachia signal). Daily batches contained ~150 compound plates in addition to the QC plates. Each compound plate was foil sealed before incubation for 7 days at 26 °C, 95% humidity and atmospheric air.
After 7 days of drug incubation, the plates were loaded into the fully automated BioCel system which performed the following additions; fixation and DNA staining (1.8% formaldehyde + 0.6 µg/ml Hoechst 33342, 20 min), permeabilisation (80 μl of PBS + 0.25% Triton-X 100, 30 min), blocking (PBS + 6% BSA, 40 min), overnight incubation in the Wolbachia-specific anti-wBmPAL primary antibody[34] […]

[2] = test system: Wolbachia within Brugia malayi Mf; experiment: Anti-Wolbachia time-kill analysis (timed wash-out) in B. malayi Mf; format: cell-based; details: 10x EC50, 1 day exposure, wash, 6-day read out, normalised to vehicle control
Excerpt: To compare the dynamics of the in vitro phenotype of our hits with existing anti-Wolbachia therapies, we employed a timed wash-out strategy (Fig. 5) at 10x EC50 to establish the anti-Wolbachia time-kill kinetics of the selected chemotypes (1A–5A), using five replicates per compound. […].
Fig. 5 Anti-Wolbachia time-kill analysis. Representatives from the top five clusters (1A–5A), as well as established anti-Wolbachia antibacterials (doxycycline (white), minocycline (grey), rifampicin (black)) were assessed after exposure for 1 day and 2 days before washing and further incubation until the standard 6-day read out. wsp:gst ratio was normalised to the DMSO vehicle control resulting in a read out of mean percentage reduction from control. Doxycycline day 6 treatment represents the result for exposure to doxycycline at 5 µM for a full 6 days (no wash). The box extends from the 25th to the 75th percentile with the median presented by the central line. The whiskers are set at the minimum and maximum therefore indicating the range from five replicates. The cluster number is indicated by colour: cluster 1 (dark blue), 2 (magenta), 3 (teal), 4 (dark gold), and 5 (light blue)
The Mf were obtained by peritoneal lavage, using a catheter, of gerbils (Meriones unguiculatus) harbouring a patent infection of B. malayi. Mf were purified using a PD-10 desalting column (Fisher), centrifuged (311 RCF for 5 min at room temperature) before the addition of 8000 Mf/well of a 96-well plate (100 µl per well) in complete media consisting of RPMI supplemented with 10% FBS, 1% penicillin streptomycin and 1% amphotericin B. Compounds were diluted in complete media and 100 µl was added per well, providing a final concentration of 5 µM, with five replicates per compound. Each plate contained doxycycline (5 µM) and DMSO controls. After incubation at 37 °C for 6 days in 5% CO2, visual assessment of Mf motility was performed and scored from 0 to 4 per well (where 0 = no movement and 4 = highly motile). DNA extraction per sample was performed using the QIAmp DNA Mini Kit before quantitative PCR was performed to obtain the ratio of Wolbachia Surface Protein gene copy number (wsp) to Glutathione S-Transferase gene copy number (gst)[36]. The DNA was amplified using the primers as indicated in Supplementary Table 6.
The wsp:gst ratio data allowed for normalisation of the Wolbachia level to the Mf biomass for each well. The change in wsp:gst for each compound compared to the DMSO control was calculated before normalisation to the onboard doxycycline control to allow for inter-assay comparison.

[3] = Human plasma protein binding; format: in vitro ADME; details: plasma
Excerpt: (§1) The DMPK data used for triaging compounds, including LogD7.4, aqueous solubility, plasma protein binding, microsome and hepatocyte clearance measurements, were generated using the standard AstraZeneca UK high-throughput platform[37],[38].

[4] = Human microsome clearance; format: in vitro ADME; details: for microsomal CLint: human, human microsomes
Excerpt: as §1

SMILES | IC50 [1] | Wolbachia reduction after a single day of exposure [2] | fraction unbound [3] | microsomal CLint [4] | Human microsomal stability (in words) [4] | Metabolic stability (in words) ([4]; in vitro, system not given)
Cc1nccc(N2CCC(C(=O)N(C)CCN(C)S(=O)(=O)c3ccc(Br)cc3)CC2)n1 [1A, N-(2-((4-bromo-N-methylphenyl)sulfonamido)ethyl)-N-methyl-1-(2-methylpyrimidin-4-yl)piperidine-4-carboxamide] | 184 nM | 57–67% | 0.24 | 211 µL/min/mg | – | –
COc1ccc(CC(=O)Nc2[nH]nc(C)c2-c2ccccc2)c(Cl)c1 [2A, 2-(2-chloro-4-methoxyphenyl)-N-(3-methyl-4-phenyl-1H-pyrazol-5-yl)acetamide] | 2390 nM | 57–67% | 0.021 | 41.2 µL/min/mg | – | –
CC1COCCN1c1cc(OCc2ccccc2)nc(-c2nccn2C)n1 (stereo not shown) [3A, 4-(6-(benzyloxy)-2-(1-methyl-1H-imidazol-2-yl)pyrimidin-4-yl)-3-methylmorpholine] | 968 nM | 42% | 0.042 | 59.7 µL/min/mg | – | –
CCc1ccc(CN2CCCC2c2nc(C(=O)N(C)C)cs2)s1 (stereo not shown) [4A, 2-(1-((5-ethylthiophen-2-yl)methyl)pyrrolidin-2-yl)-N,N-dimethylthiazole-4-carboxamide] | 145 nM | 57–67% | 0.078 | 92 µL/min/mg | poor | –
Cc1nc(C(=O)NC(C)c2ccc(F)cc2)c(NC(=O)Cc2ccccc2)[nH]1 (stereo not shown) [5A, N-(1-(4-fluorophenyl)ethyl)-2-methyl-5-(2-phenylacetamido)-1H-imidazole-4-carboxamide] | 594 nM | 57–67% | 0.073 | 39.5 µL/min/mg | – | moderate
